# Reference: patent US20080227815A1, “Crystal of Indole Derivative Having Piperidine Ring and Process for Production Thereof” (priority 2005, published 2008)
# Where a name gives a salt, the structure may show the parent alone.
# What was measured:
# [1] = target: T1, Rat 5-HT1A (Rattus norvegicus, UniProt P19327); experiment: Affinity for rat serotonin1A receptor ([3H]MPPF binding to rat hippocampal membrane fraction); conditions: pH 7.4, 25° C., 60 min, non-specific binding with 10 μM serotonin, Ki from IC50, tracer concentration and Kd (Scatchard)
# T1 construct: A rat hippocampus sample was homogenized in a 50 mM Tris-HCl buffer; from tissue; host or cells: rat hippocampus (membrane fraction)
# T1 sequence (P19327 1-422): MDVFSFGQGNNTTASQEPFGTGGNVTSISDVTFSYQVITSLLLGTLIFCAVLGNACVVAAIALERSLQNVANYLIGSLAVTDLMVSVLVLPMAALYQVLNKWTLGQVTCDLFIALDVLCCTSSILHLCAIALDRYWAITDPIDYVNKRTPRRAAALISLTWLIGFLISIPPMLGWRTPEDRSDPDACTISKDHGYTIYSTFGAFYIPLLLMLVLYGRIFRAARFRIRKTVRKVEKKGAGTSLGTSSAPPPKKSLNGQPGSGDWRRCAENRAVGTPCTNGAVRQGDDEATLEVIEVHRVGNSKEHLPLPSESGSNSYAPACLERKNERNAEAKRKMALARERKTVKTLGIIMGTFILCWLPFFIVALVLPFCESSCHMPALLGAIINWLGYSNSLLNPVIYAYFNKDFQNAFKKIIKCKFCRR
# Procedure: Test Regarding Affinity for Rat Serotonin1A Receptor
# An MPPF rat hippocampal membrane fraction selectively binding to the 5-HT1A receptor was used to test affinity of a test substance for the rat 5-HT1A receptor.
# A rat hippocampus sample was homogenized in a 50 mM Tris-HCl buffer (pH 7.4; hereinafter referred to as “buffer A”) that had been cooled with ice. The suspension was centrifuged at 50,000×g for 20 minutes. The obtained sediment was suspended in buffer solution A, and the resultant solution was then centrifuged at 50,000×g for 20 minutes. The obtained sediment was suspended in buffer solution to obtain a rat hippocampus membrane fraction.
# The mixture used for incubation contained an appropriate amount of membrane fraction, a test substance at a desired concentration, [^3H]MPPF, dimethyl sulfoxide and buffer A. The reaction was initiated through the addition of the membrane fraction, and the mixture was incubated at 25° C. for 60 minutes. After incubation, the mixture was subjected to vacuum filtration by passing through a glass filter using a Cell Harvester. The filter was washed 3 times with buffer solution A, and then radioactivity binding to the receptor was measured with a liquid scintillation counter. Non-specific binding was defined as binding detected in the presence of 10 μM serotonin. […]
# [2] = system: urinary reflex; experiment: Inhibitory action against the increased urinary reflex action due to destruction of the superior colliculus in rats (cystometrogram); type: in vivo, rat (Sprague-Dawley; conditions: 1 mg/kg, i.v.; superior colliculus-lesioned female Sprague-Dawley rats; maximal reaction (Emax)
# Description: In the present test, Sprague-Dawley female rats (200-350 g) were used. The rats underwent a median incision of the abdomen under anesthesia. A hole with a minor diameter was made on the apex of the bladder, and a catheter used for measurement of an intravesical pressure was placed therein. A catheter used for administration of a test substance was placed in the femoral vein. These catheters were fixed at the occipital region of the rat through the subcutis. One day later, the urinary reflex of the rats was measured with a cystometrogram. Thereafter, the rats were fixed on a brain stereotaxis apparatus under anesthesia, and then subjected to a median incision of the scalp. […] Electric current was then applied (65° C., 4 minutes) so as to damage the brain tissue. After completion of the operation, when the rat awoke from the anesthesia, cystometrogram was conducted again to confirm the increased state of urinary reflex. A test substance was administered through the catheter placed in the femoral vein, and the action of the test substance on urinary reflex was evaluated. In addition, the effects of several test substances were compared using the maximal reaction (Emax).
smiles,measurement,setting,value
"CNC(=O)c1ccc2ccn(C3CCN(CCc4c(OC)ccc5c4OC(C)(C)CC5=O)CC3)c2c1 [Form D crystal form of fumarate, 1-{1-[2-(7-methoxy-2,2-dimethyl-4-oxochroman-8-yl)ethyl]piperidin-4-yl}-N-methyl-1H-indole-6-carboxamide fumarate (form D crystal)]",Ki,[1],0.045 nM
same,Urinary interval Emax,[2],75%
